Reference: patent US11230542B2, “Inhibitors of integrated stress response pathway” (Praxis Biotech LLC, priority 2017, dated 2022)
pIC50: −log10 of the molar value. Read-outs that look alike come from different tables or passages of the source.

Legend:
ATF4 = ATF4 expression inhibition assay (thapsigargin-stressed HEK293T cells, western blot); format: cell-based; settings: Homo sapiens, HEK-293T; for pIC50: 3 h with 100 nM Tg, test compound 1 nM to 1 μM; for inhibition at 0.1 µM: 3 h with 100 nM thapsigargin (Tg) and 100 nM test compound; for inhibition at 0.1 µM / inhibition at 1 µM: Tg alone 0%, untreated 100%; for inhibition at 1 µM: 3 h with 100 nM thapsigargin (Tg) and 1 μM test compound
Procedure: HEK293T cells were maintained at 37° C. and 5% CO2 in Dulbecco's Modified Eagle's Media (DMEM) supplemented with 10% fetal bovine serum (FBS), 2 mM L-glutamine, 100 U/ml penicillin, and 100 μg/ml streptomycin. […] Cells without treatment or cells treated with Tg alone were used as controls.
After 3 hours of treatment with Tg and the test compound, cells were lysed with SDS-PAGE lysis buffer. Lysates were transferred to 1.5 ml tubes and sonicated for 3 min, and total protein amounts were quantified using BCA Protein Assay Kit (Pierce). Equal amount of proteins were loaded on SDS-PAGE gels. Proteins were transferred onto 0.2 μm PVDF membranes (BioRad) and probed with primary antibodies diluted in Tris-buffered saline supplemented with 0.1% Tween 20 and 3% bovine serum albumin.
(§1) ATF4 (11815) antibody was used as primary antibody (Cell Signaling Technologies). A horseradish peroxidase (HRP)-conjugated secondary antibody (Rockland) was employed to detect immune-reactive bands using enhanced chemiluminescence (ECL Western Blotting Substrate, Pierce). Quantification of protein bands was done by densitometry using ImageJ.
Percentages of ATF4 inhibition after induction with Tg in the presence of 100 nM or 1 μM of certain test compounds are shown in Table 2 and FIG. 1. Percentage of ATF4 inhibition was calculated as the percent reduction normalized to Tg treatment (0% inhibition) and untreated cells (100% inhibition). Also shown in Table 2 is the calculated IC50 for the test compounds. […] Accordingly, inhibition of ATF4 expression as a result of the test compound indicates suppression of the ISR pathway.

CHO cells = experiment: Protein translation assay (puromycin incorporation in CHO cells, unstressed or Tg-stressed); format: cell-based, Chinese hamster; settings: Cricetulus griseus, media alone 100%; for activity at 0.1 µM: read-out: % Recovery of protein expression (100 nM test compound)
Procedure: CHO cells were maintained at 37° C. and 5% CO2 in DMEM supplemented with 10% fetal bovine serum (FBS), 2 mM L-glutamine, 100 U/ml penicillin, and 100 μg/ml streptomycin. After reaching 80% of confluence, cells were detached and seeded on 6 well plates in complete media, allowed to recover overnight and treated for 2 hours with 1 μM of the test compound (to assess protein synthesis levels in unstressed condition), or for 1 hour with 100 nM and 1 μM of the test compound and then co-treated with 300 nM Tg and 100 nM and 1 μM of the test compound (to assess the recovery of protein synthesis in a stressed condition). Cells treated with Tg alone were used as controls.
After the 2 hours treatments, media were replaced by adding 10 μg/ml puromycin (Sigma Aldrich) in complete media for 30 min. Media were removed and cells were lysed with SDS-PAGE lysis buffer. Lysates were transferred to 1.5 ml tubes and sonicated for 3 minutes and total protein amount were quantified using BCA Protein Assay Kit (Pierce). Equal amount of protein (30 μg) was loaded on SDS-PAGE gels. Proteins were transferred onto 0.2 μm PVDF membranes (BioRad) and probed with primary antibodies diluted in Tris-buffered saline supplemented with 0.1% Tween 20 and 3% bovine serum albumin.
as §1, with “Puromycin (12D10)” for “ATF4 (11815)”, “(Merck Millipore).” for “(Cell Signaling Technologies).”, “HRP-conjugated” for “horseradish peroxidase (HRP)-conjugated”
Percent increase of protein synthesis in unstressed cells (without Tg treatment) in the presence of media alone or certain test compounds is shown in Table 3 and FIG. 2. The percentage levels were normalized to the media alone condition, which correspond to 100% protein synthesis.
Percent recovery of protein synthesis in stressed cells (with Tg treatment) due to the test compounds at 100 nM or 1 μM is shown in FIGS. 3A and 3B, respectively, and in Table 3. The levels were normalized to the media alone and to Tg alone conditions, which correspond to 100% and 0% respectively.

[1] = CHO cells stressed with 300 nM Tg, Tg alone 0%
[2] = CHO cells stressed with 300 nM Tg, Tg alone 0%, read-out: % Recovery of protein expression (1 μM test compound)
[3] = unstressed CHO cells, 2 h, read-out: % Protein expression relative to untreated (1 μM test compound)

Row | SMILES | pIC50 (ATF4) | inhibition at 0.1 µM (ATF4) [%] | inhibition at 1 µM (ATF4) [%] | activity at 0.1 µM (CHO cells; [1]) [%] | activity at 1 µM (CHO cells; [2]) [%] | activity at 1 µM (CHO cells; [3]) [%]
1 | O=C(COc1ccc(Cl)c(F)c1)NC1CCN(CC(O)COc2ccc(Cl)c(F)c2)CC1 (single isomer, unassigned; (-)) [Compound 26, (−)-2-(4-chloro-3-fluorophenoxy)-N-(1-(3-(4-chloro-3-fluorophenoxy)-2-hydroxypropyl)piperidin-4-yl)acetamide] | 7.57 | 91 | 97 | 34.2 | 176 | 112
2 | O=C(N[C@H]1CC[C@H](NCC(O)COc2ccc(Cl)c(F)c2)CC1)c1cc2cc(Cl)ccc2o1 (single isomer, unassigned; (-)) [Compound 155, (−)-trans-5-chloro-N-(4-((3-(4-chloro-3-fluorophenoxy)-2-hydroxypropyl)amino)cyclohexyl)benzofuran-2-carboxamide] | – | 60 | 75 | 68.5 | 190 | 263
3 | O=C(COc1ccc(Cl)cc1)N[C@H]1CC[C@H](NC(=O)C2CNc3cc(Cl)ccc3O2)CC1 (single isomer, unassigned; (-)) [Compound 157, (−)-trans-6-chloro-N-(4-(2-(4-chlorophenoxy)acetamido)cyclohexyl)-3,4-dihydro-2H-benzo[b][1,4]oxazine-2-carboxamide] | 7.62 | 96 | 100 | 39.7 | 97.3 | 118
4 | O=C(COc1ccc(Cl)cc1)N[C@H]1CC[C@H](NCC(O)COc2ccc(Cl)cc2)CC1 (stereo partly drawn) [Compound 1, trans-2-(4-chlorophenoxy)-N-(4-((3-(4-chlorophenoxy)-2-hydroxypropyl)amino)cyclohexyl)acetamide] | 6.45 | 0 | 71 | 63.8 | 160 | 152
5 | O=C(COc1ccc(Cl)c(F)c1)N[C@H]1CC[C@H](NCC(O)COc2ccc(Cl)c(F)c2)CC1 (stereo partly drawn) [Compound 2, trans-2-(4-chloro-3-fluorophenoxy)-N-(4-((3-(4-chloro-3-fluorophenoxy)-2-hydroxypropyl)amino)cyclohexyl)acetamide] | 6.79 | 40 | 56 | 42.5 | 135 | 136
6 | O=C(COc1ccc(Cl)cc1)NC1CCN(CC(O)COc2ccc(Cl)cc2)CC1 (centres unmarked) [Compound 5, 2-(4-chlorophenoxy)-N-(1-(3-(4-chlorophenoxy)-2-hydroxypropyl)piperidin-4-yl)acetamide] | 6.77 | 42 | 94 | 64.9 | 189 | 130
7 | O=C(COc1ccc(Cl)c(F)c1)N[C@H]1CC[C@H](NCC(O)COc2ccc(Cl)cc2)CC1 (stereo partly drawn) [Compound 10, trans-2-(4-chloro-3-fluorophenoxy)-N-(4-((3-(4-chlorophenoxy)-2-hydroxypropyl)amino)cyclohexyl)acetamide] | – | 0 | 11 | 30.6 | 127 | –
8 | O=C(COc1ccc(Cl)c(F)c1)NC1CCN(CC(O)COc2ccc(Cl)c(F)c2)CC1 (centres unmarked) [Compound 13, 2-(4-chloro-3-fluorophenoxy)-N-(1-(3-(4-chloro-3-fluorophenoxy)-2-hydroxypropyl)piperidin-4-yl)acetamide] | 7.24 | 57 | 93 | 49.6 | 159 | 94
9 | O=C(COc1ccc(Cl)c(F)c1)N[C@H]1CC[C@H](NC(=O)c2cc3cc(Cl)ccc3o2)CC1 [Compound 17, trans-5-chloro-N-(4-(2-(4-chloro-3-fluorophenoxy)acetamido)cyclohexyl)benzofuran-2-carboxamide] | 8.02 | 95 | 98 | 87 | 172 | 93.2
10 | O=C(COc1ccc(Cl)c(F)c1)N[C@H]1CC[C@H](NC(=O)C2Cc3cc(Cl)ccc3O2)CC1 (stereo partly drawn) [Compound 19, trans-5-chloro-N-(4-(2-(4-chloro-3-fluorophenoxy)acetamido)cyclohexyl)-2,3-dihydrobenzofuran-2-carboxamide] | – | 94 | 100 | 14.1 | 116 | –
11 | O=C(NC1CCN(CC(O)COc2ccc(Cl)c(F)c2)CC1)C1Cc2cc(Cl)ccc2O1 (centres unmarked) [Compound 20, 5-chloro-N-(1-(3-(4-chloro-3-fluorophenoxy)-2-hydroxypropyl)piperidin-4-yl)-2,3-dihydrobenzofuran-2-carboxamide] | – | 14 | 64 | 38.6 | 93.9 | –
12 | O=C(NC1CCN(CC(O)COc2ccc(Cl)c(F)c2)CC1)c1ccc2cc(Cl)ccc2c1 (centres unmarked) [Compound 21, 6-chloro-N-(1-(3-(4-chloro-3-fluorophenoxy)-2-hydroxypropyl)piperidin-4-yl)-2-naphthamide] | – | 54 | 78 | 70.5 | 182 | –
13 | O=C(NC1CCN(CC(O)COc2ccc(Cl)c(F)c2)CC1)c1ccc2cc(Cl)ccc2n1 (centres unmarked) [Compound 22, 6-chloro-N-(1-(3-(4-chloro-3-fluorophenoxy)-2-hydroxypropyl)piperidin-4-yl)quinoline-2-carboxamide] | 6.99 | 21 | 81 | 67.3 | 264 | 170
14 | O=C(COc1ccc(Cl)c(F)c1)N[C@H]1CC[C@H](NC(=O)c2ccc3cc(Cl)ccc3n2)CC1 [Compound 23, trans-6-chloro-N-(4-(2-(4-chloro-3-fluorophenoxy)acetamido)cyclohexyl)quinoline-2-carboxamide] | 8.68 | 97 | 99 | 79.2 | 176 | 120
15 | O=C(COc1ccc(Cl)c(F)c1)N[C@H]1CC[C@H](NC(=O)c2cc3ccncc3o2)CC1 [Compound 24, trans-N-(4-(2-(4-chloro-3-fluorophenoxy)acetamido)cyclohexyl)furo[2,3-c]pyridine-2-carboxamide] | – | 18 | 54 | 11.8 | 24.3 | –
16 | CC1(C)CC(NC(=O)COc2ccc(Cl)c(F)c2)CC(C)(C)N1CC(O)COc1ccc(Cl)c(F)c1 (centres unmarked) [Compound 25, 2-(4-chloro-3-fluorophenoxy)-N-(1-(3-(4-chloro-3-fluorophenoxy)-2-hydroxypropyl)-2,2,6,6-tetramethylpiperidin-4-yl)acetamide] | – | 0 | 0 | 11.4 | 22.9 | –
